Measurements: paper PMC3972818 (Nature medicine, 2014)
Converted amounts (≈) assume the structure as drawn.

Experiments:
[1] = test system: M. tuberculosis ATCC 35837; test: microbe, parasite or virus in culture; assay type: cell-based; conditions: Mycobacterium tuberculosis, ATCC35837
[2] = test system: M. tuberculosis H37Rv; test: MIC, microbroth dilution; assay type: cell-based; conditions: Mycobacterium tuberculosis
[3] = test system: M. tuberculosis ATCC 35838; assay type: cell-based, Mycobacterium tuberculosis
[4] = test system: M. tuberculosis H37Rv-HL-15; assay type: cell-based, Mycobacterium tuberculosis
[5] = test system: M. tuberculosis H37Rv-HL-14; assay type: cell-based, Mycobacterium tuberculosis
[6] = test system: M. tuberculosis ATCC 35822; assay type: cell-based, Mycobacterium tuberculosis
[7] = test system: M. tuberculosis ATCC 35820; assay type: cell-based, Mycobacterium tuberculosis

In the case of `CC[C@@H](CO)NCCN[C@@H](CC)CO` [Ethambutol], the MIC [1] is reported as over 25 µg/mL.

Molecule `[H]/N=C(/N)N[C@H]1[C@H](O)[C@@H](O)[C@H](O[C@@H]2O[C@@H](C)[C@](O)(C=O)[C@H]2O[C@@H]2O[C@@H](CO)[C@H](O)[C@@H](O)[C@@H]2NC)[C@@H](N/C(N)=N\[H])[C@@H]1O` [Streptomycin, streptomycin] has an MIC [2] of 1.6 µg/mL (≈ 2.75 µM), an MIC [3] of 1.6 µg/mL (≈ 2.75 µM) and an MIC [4] of 1.6 µg/mL (≈ 2.75 µM). For the same molecule, the MIC [5] was 1.6 µg/mL (≈ 2.75 µM), the MIC [1] was 1.6 µg/mL (≈ 2.75 µM) and the MIC [6] was 1.6 µg/mL (≈ 2.75 µM). The MIC [7] was over 200 µg/mL.

For `CN[C@@H]1[C@H](O)[C@H](NC)[C@H]2O[C@@]3(O)C(=O)C[C@@H](C)O[C@H]3O[C@@H]2[C@H]1O` [Spectinomycin, spectinomycin], the MIC [2] was 100 µg/mL (≈ 301 µM), the MIC [3] was 100 µg/mL (≈ 301 µM) and the MIC [4] was over 200 µg/mL. The MIC [5] was over 200 µg/mL, the MIC [1] was 100 µg/mL (≈ 301 µM) and the MIC [6] was 100 µg/mL (≈ 301 µM). It also gave an MIC [7] of 200 µg/mL (≈ 602 µM).
